What was measured:
[1] = tested on: Wnt induced calcium release; assay: Wnt induced [Ca2+]i release after preincubation with thapsigargin or membrane potential regulating compounds; format: cell-based; conditions: PC3 cells, thapsigargin 5 μM for 15 min; Wnt5A 100 ng/ml, Wnt9B 200 ng/ml, Wnt10B 200 ng/ml
Method: The imaging protocol was developed in the inventor's laboratory and has been described in detail, elsewhere (Wang at al., (2010) PLoS ONE 5, e10456). Briefly, 100000-200000 PC3, MCF7, 253J or Cos 7 cells were plated on 35 mm FluoroDish (WPI) and grown for 48 h; calcium indicators Fluo-4 (Invitrogen) and FuraRed (Invitrogen) at 1 ng/ml were added to FluoroDish containing only 1 ml of culture medium and incubated for 15-20 min at 37° C. The culture medium was removed and washed (×2) and replaced with 1 ml PBS. Live cell calcium Imaging was performed on an Olympus FluoView FV 1000 confocal microscope (Olympus KeyMed) equipped with a 20× dry objective (numerical aperture=0.75). Calcium indicators were excited with an argon laser line (488 nm) and emissions recorded in the green channel (500-560 nm) for Fluo-4 and red channel (600-700 nm) for FuraRed after addition of vehicle control (PBS) or Wnt X (30-600 ng/ml). Images were acquired every 1.1 or 2.2 seconds for up to 600-800s; image and data acquisition was performed using FluoView 1000 software (Olympus, UK). Fluorescent intensity was measured and data exported as a tab delimited file for further analysis using a spreadsheet. All imaging experiments were performed in duplicate; intracellular calcium at 100 ng/ml was measured in at least 3-12 different passages (passage numbers 25 to 37) of cell line for each Wnt ligand. Wnt 11 was tested in at least 5 different passages at 3 different concentrations. […]
To measure the effect of changes in membrane potential on [Ca^2+]i release using the protocol described above, in some experiments, external solution (PBS) was substituted with varying concentrations of KCl. In other experiments chemical inhibitors of K^+ channels such as TEA, CsCl or tolbutamide (Sigma-Aldrich) were added to the cells grown on FluoroDish, at 37° C., at least 5 min prior to addition of Wnt ligands.
After image acquisition, regions of interest (ROI) were drawn over individual PC3 cells (up to 25) in a single frame and calcium intensity measurements were made using FluoView 1000 software (Olympus, UK). The measurements were exported as a tab delimited file into a spreadsheet for further analysis and Fluo4/Fura Red ratios were calculated. The waveform, a product of the ratio of Fluo4 and FuraRed over the period of measurement was used to measure the kinetics of the activation of [Ca^2+]i release in PC3 cells, in response to different Wnt ligands. The time constants (rise, dwell and fall times) were calculated by first fitting the Fluo4/FuraRed ratio to a single Gaussian function (Origin Lab Corp., MA); a lower (10%) and upper (90%) amplitude thresholding method was then used to calculate the time constants (s). Statistical significance was calculated using Mann Whitney U test.

PC3 cells = assay: Scratch wound assay; format: cell-based; conditions: wounded PC3 cells, ±Wnts and thapsigargin, vs control untreated cells
Method: PC3 cells were grown in 24 well, ImageLock plates (Essen Bioscience, MI) to confluency and scratched using a wound maker device (Essen Bioscience, MI). Imaging (at 2 h intervals) and quantitation of wound width was performed as described earlier (Wang at al., (2010) PLoS ONE 5, e10456) using Incucyte (Essen Bioscience, MI). The rate of wound closure (±Wnts and thapsigargin) was calculated by fitting the line using linear regression function in Origin software (Origin Lab Corp., MA). Statistical significance of difference between the slopes for untreated and treated samples was calculated using F-test.

For `C/C=C(/C)C(=O)O[C@H]1C(C)=C2[C@H]([C@@H]1OC(=O)CCCCCCC)[C@@](C)(OC(C)=O)C[C@H](OC(=O)CCC)[C@@]1(O)[C@H]2OC(=O)[C@@]1(C)O` [thapsigargin, reference compound], the “increase in [Ca2+]i in response to Wnt ligands (5A, 9B and 10B) after thapsigargin” value [1] was “abolished” and the “rate of wound closure” value (PC3 cells) was “significant decrease”.

Source: patent US20160271157A1, “BETA-CATENIN” (UCL BUSINESS PLC, priority 2013, published 2016)
